Test results from patent US20150183748A1, “METHODS OF TREATMENT AND PREVENTION OF NEURODEGENERATIVE DISEASES AND DISORDERS” (Thomas Jefferson University, priority 2007, published 2015).
“Also recorded” adds a separate entry of the source.

Test system: DM/HC pig model
Experiment: Diabetic/hypercholesterolemic (DM/HC) pig model: brain histology/IHC, weight and behaviour
Assay type: in vivo
Procedure: A diabetic/diabetic hypercholestrolemic pig model (DM/HC) was developed that mimics human-like atherosclerosis. Farm pigs weighing 25-30 kg and aged ˜4 months were made diabetic with a single intravenous injection of 125 mg/kg of streptozotocin (Sicor Pharmaceuticals, Irvine, Calif.). After stabilization for 1-2 weeks, the animals with elevated levels of plasma glucose (>150 mg/dl) were fed with atherogenic (high-fat) diet as shown in Table 1 (Animal Specialties, Quakertown, Pa.) to achieve a cholesterol level of approximately […] Maintenance of the cholesterol level was determined by method as shown in Table 2.
On days 1-2, animals were fed normal chow, followed by on days 3-14 animals were fed a diet of 0.5% cholesterol, 2% lard and on day 14, cholesterol levels were measured and the diet adjusted accordingly to increase to 2% cholesterol, 10% lard if cholesterol is <300 mg/dl. Following induction of DM/HC, cholesterol was measured until cholesterol levels are stable between 300 and 800 mg/dl, and following cholesterol stabilization, cholesterol was measured monthly. If cholesterol levels were unstable following initial stabilization phase, the diet of the animal was returned to the initial two-week measurement schedule. Monthly cholesterol levels were determined, including levels of total cholesterol, LDL, HDL, VLDL and triglycerides.
At one month after stabilization of cholesterol at 250-800 mg/d1, the animals were randomized into two experimental groups, DM/HC (hyperglycemia and hypercholesterolemia) group with no treatment and treatment group (10 mg/kg/day of SB-480848, also referred to as 1-(N-(2-(diethylamino)ethyl)-N-(4-(4-trifluoromethylphenyl)benzyl)-aminocarbonylmethyl)-2-(4-fluorobenzyl)thio-5,6-trimethylenepyrimidin-4-one). The animals were sacrificed at 6-month after the randomization. The animal protocol has been approved by the Institutional Animal Care and Use Committee of University of Pennsylvania.
Two diabetic/hypercholesterolemic groups were evaluated: 1. DM/HC group and 2. DM/HC animals receiving Lp-PLA2 inhibitors. The experiments included: the control group (DM/HC group—17 pigs) and the experimental group (DM/HC animals receiving LP-PLA2 inhibitors—20 pigs). In addition blood cholesterol levels were maintained between 300 and 800 mg/dl in experimental animals, this range having been determined to provide a better test model. Blood cholesterol levels were monitored in all animals on a bimonthly basis, as shown in Table 4 and adjustments were made to the fat content of the feed accordingly, as shown in Table 2. The cholesterol and lard percent were in the range of 0.5-2% and 10-25%, respectively, and all animals received feed that contained cholesterol and lard concentration within that range. Blood samples were obtained at baseline, 1 month, 3 months, and 6 months. Less than 1 ml/kg of blood were obtained each time. At the bimonthly blood cholesterol levels tests, levels of total cholesterol, LDL, HDL, VLDL and triglycerides, blood glucose, Lp-PLA2 and […] (PBMCs) were tested (see Table 4).
The animal number, selected to justify the minimum requirement for statistical validity were 2 groups of animals per experiment as follows: 1. Control group (n=17); Diabetic and hyperlipidemic; 2.
Domestic farm pigs, Yorkshire boars, ranging in weight between 25-35 kg were purchased from a local farm and placed in indoor housing under the care of a veterinarian. They were castrated 3-5 days in advance of the study start date. Test pigs were made diabetic by infusing one dose of streptozocin (125 mg/kg) IV in a period of 30 min. […] To avoid the possible onset of initial hypoglycemia, 20 g of glucose powder was added to the feed for the […]. The blood glucose was measured using a glucometer every day before feeding for the first 14 days and then once a week.
Test animals were housed separately from control animals to avoid inter-animal transfer of drug due to colcophagia. […]

[1] = DM/HC pigs, 10 mg/kg/day, brain IHC for pig immunoglobulin
[2] = DM/HC pigs, 10 mg/kg/day, observed during study period vs control non-treated animals

CCN(CC)CCN(Cc1ccc(-c2ccc(C(F)(F)F)cc2)cc1)C(=O)Cn1c(SCc2ccc(F)cc2)nc(=O)c2c1CCC2 [Lp-PLA2 inhibitor, 1-(N-(2-(diethylamino)ethyl)-N-(4-(4-trifluoromethylphenyl)benzyl)-aminocarbonylmethyl)-2-(4-fluorobenzyl)thio-5,6-trimethylenepyrimidin-4-one]
activation of glial cells (DM/HC pigs treated with Lp-PLA2 inhibitor, GFAP as marker): less activation of glial cells | Abeta42 accumulation in vascular SMCs (cerebrovascular amyloidosis) (DM/HC pigs, 10 mg/kg/day, Abeta-42 immunostaining of arterioles): little or no arterial Abeta-42 immunostaining; also recorded: prevented Abeta42 accumulation in vascular SMCs | Abeta-42 accumulation in neurons (immunoreactivity) (DM/HC pigs, 10 mg/kg/day, brain Abeta-42 immunostaining, n=6): immunonegative neurons for Abeta-42; also recorded: no neuronal Abeta-42 immunoreactivity | dendrite collapse (DM/HC pigs, 10 mg/kg/day, brain IHC): no dendrite collapse | Ig binding to neurons [1]: no Ig binding to neurons | Ig leakage from blood vessels [1]: Ig is confined to the lumen of the blood vessels; also recorded: no Ig leakage from blood vessels | DM/HC-induced BBB leakage (DM/HC pigs, 10 mg/kg/day, brain IHC for pig immunoglobulin, n=6): prevents BBB leakage; also recorded: negligible BBB leakage | sick neurons (DM/HC pigs, 10 mg/kg/day, compared with non-treated animals): rarely observed | activity in the cage [2]: increased activity in the cage | response to feeding and handling [2]: respond more alertly to feeding and handling | responsiveness to external stimuli [2]: more responsive to external stimuli
